Measurements as given in ChEMBL document CHEMBL5331095, “Structure-activity relationship and biological evaluation of xanthine derivatives as PCSK9 inhibitors for the treatment of atherosclerosis” (Eur J Med Chem, 2023).
The source made the active and inactive calls. The calls are words filed in the database; no cut-off is given here.

How the values were obtained:
[1] = biological target: Proprotein convertase subtilisin/kexin type 9 (Homo sapiens) (UniProt Q8NBP7); assay: Inhibition of PCSK9 transcriptional activity in human HepG2 cells stably expressing luciferase reporter plasmid containing PCSK9 promoter assessed as decrease in luciferase activity at 10 ug/ml incubated for 24 hrs by Luciferase assay relative to control; assay type: cell-based; conditions: dose 10.0 µg/ml
Proprotein convertase subtilisin/kexin type 9 (Homo sapiens), sequence (Q8NBP7 31-152 limits assumed): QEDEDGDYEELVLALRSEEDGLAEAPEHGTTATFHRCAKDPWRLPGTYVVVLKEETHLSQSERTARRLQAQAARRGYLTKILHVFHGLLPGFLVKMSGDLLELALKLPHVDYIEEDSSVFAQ
Proprotein convertase subtilisin/kexin type 9 (Homo sapiens), sequence (Q8NBP7 153-692 limits assumed): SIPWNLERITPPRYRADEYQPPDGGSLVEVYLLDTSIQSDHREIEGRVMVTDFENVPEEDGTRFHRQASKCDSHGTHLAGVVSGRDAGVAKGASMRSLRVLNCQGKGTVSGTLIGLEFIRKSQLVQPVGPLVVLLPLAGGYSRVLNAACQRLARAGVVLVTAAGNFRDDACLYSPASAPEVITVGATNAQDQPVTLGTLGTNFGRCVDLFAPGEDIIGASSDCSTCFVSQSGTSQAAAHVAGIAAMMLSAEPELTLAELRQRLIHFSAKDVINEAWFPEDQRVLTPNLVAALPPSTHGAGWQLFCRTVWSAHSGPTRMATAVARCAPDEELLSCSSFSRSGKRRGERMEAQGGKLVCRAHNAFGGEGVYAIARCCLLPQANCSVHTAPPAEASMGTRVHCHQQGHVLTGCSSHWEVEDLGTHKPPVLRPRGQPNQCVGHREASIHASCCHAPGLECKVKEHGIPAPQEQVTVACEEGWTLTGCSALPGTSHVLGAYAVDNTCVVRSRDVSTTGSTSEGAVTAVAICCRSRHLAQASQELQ

[2] = system: PCSK9 transcriptional activity; assay: Therapeutic index, ratio of TC50 for cytotoxicity against human HepG2 cells to IC50 for inhibition of PCSK9 transcriptional activity in human HepG2 cells stably expressing luciferase reporter plasmid containing PCSK9 promoter; assay type: toxicity, cell-based
[3] = Cytotoxicity against human HepG2 cells assessed as reduction in cell viability by measuring toxic concentration incubated for 24 hrs by MTT assay; assay type: toxicity, cell-based; conditions: read-out: TC50
Mus musculus [4] = assay: Antiatherosclerotic activity in high-fat diet fed ApoE knockout C57BL/6 mouse assessed as decrease in serum triglyceride level at 30 mg/kg, IG for 8 weeks by lipid profiling assay; assay type: functional, organism-based
Mus musculus [5] = assay: In vivo inhibition of PCSK9 in high-fat diet fed ApoE knockout C57BL/6 mouse assessed as decrease in PCSK9 expression in liver at 30 mg/kg, IG for 8 weeks by Western blot analysis; assay type: functional, organism-based
[6] = biological target: Proprotein convertase subtilisin/kexin type 9 (Homo sapiens) (UniProt Q8NBP7); assay: Inhibition of PCSK9 in human HepG2 cells assessed as increase in LDL-cholesterol cellular uptake by measuring DiI fluorescence at 2.5 to 25 uM incubated for 24 hrs by Dil-LDL staining based flow cytometry analysis; assay type: cell-based; conditions: dose 2.5-25 µM
Mus musculus [7] = assay: Antiatherosclerotic activity in high-fat diet fed ApoE knockout C57BL/6 mouse assessed as decrease in high-fat diet induced increase in body weight at 30 mg/kg, IG for 8 weeks; assay type: functional, organism-based
[8] = Acute toxicity in C57BL/6 mouse assessed as survival upto 1000 mg/kg, IG and measured every day for 1 week; assay type: organism-based; conditions: in vivo, po, 168 h, time 1 weeks
Mus musculus [9] = assay: In vivo inhibition of PCSK9 in high-fat diet fed ApoE knockout C57BL/6 mouse assessed as decrease in PCSK9 expression in serum at 30 mg/kg, IG for 8 weeks by ELISA; assay type: functional, organism-based
[10] = biological target: Proprotein convertase subtilisin/kexin type 9 (Homo sapiens) (UniProt Q8NBP7); assay: Inhibition of PCSK9 in human HepG2 cells assessed as fold increase in LDL-cholesterol cellular uptake by measuring DiI fluorescence at 25 uM incubated for 24 hrs by Dil-LDL staining based flow cytometry analysis relative to control; assay type: cell-based
[11] = biological target: Proprotein convertase subtilisin/kexin type 9 (Homo sapiens) (UniProt Q8NBP7); assay: Inhibition of PCSK9 in human HepG2 cells assessed as increase in LDLR protein expression level at 2.5 to 25 uM incubated for 24 hrs by Western blot analysis; assay type: cell-based; conditions: dose 2.5-25 µM
[12] = Acute toxicity in C57BL/6 mouse assessed as lethality upto 1000 mg/kg, IG and measured every day for 1 week; assay type: organism-based; conditions: in vivo, po, time 1 weeks
[13] = Acute toxicity in C57BL/6 mouse assessed as behavioral change upto 1000 mg/kg, IG and measured every day for 1 week; assay type: organism-based; conditions: in vivo, po, 168 h, time 1 weeks
[14] = biological target: Proprotein convertase subtilisin/kexin type 9 (Homo sapiens) (UniProt Q8NBP7); assay: Inhibition of PCSK9 in human HepG2 cells assessed as decrease in PCSK9 protein expression level at 2.5 to 25 uM incubated for 24 hrs by Western blot analysis; assay type: cell-based; conditions: dose 2.5-25 µM
Mus musculus [15] = assay: Antiatherosclerotic activity in high-fat diet fed ApoE knockout C57BL/6 mouse assessed as decrease in serum total cholesterol level at 30 mg/kg, IG for 8 weeks by lipid profiling assay; assay type: functional, organism-based
[16] = Acute toxicity in C57BL/6 mouse assessed as body weight change upto 1000 mg/kg, IG and measured every day for 1 week; assay type: organism-based; conditions: in vivo, po, 168 h, time 1 weeks

| inhibition [1] | Compound | also measured |
| --- | --- | --- |
| 8.3% | COc1cccc(Cn2c(N3CCC(N4CCCC4)CC3)nc3c2c(=O)n(C)c(=O)n3C)c1 |  |
| 23.3% | Cn1c(=O)c2c(nc(NCCO)n2Cc2ccc([N+](=O)[O-])cc2)n(C)c1=O |  |
| 1.7% | COc1cc(Cn2c(NCCO)nc3c2c(=O)n(C)c(=O)n3C)cc(OC)c1 |  |
| 16.2% | COc1ccc(Cn2c(NCCO)nc3c2c(=O)n(C)c(=O)n3C)cc1OC |  |
| 59.2% | COc1cccc(Cn2c(NCC(N)=O)nc3c2c(=O)n(C)c(=O)n3C)c1 |  |
| 43.3% | Cn1c(=O)c2c(nc(NCCO)n2Cc2cc(F)cc(F)c2)n(C)c1=O |  |
| 34.2% | Cn1c(=O)c2c(nc(NCCO)n2Cc2cccc(Br)c2)n(C)c1=O |  |
| 41.4% | COC(=O)CCNc1nc2c(c(=O)n(C)c(=O)n2C)n1Cc1cccc(OC)c1 |  |
| 0.8% | COc1cccc(Cn2c(N3CCCCC3CN3CCCC3)nc3c2c(=O)n(C)c(=O)n3C)c1 (stereo not given) |  |
| 18.9% | COc1cccc(Cn2c(N[C@@H](CO)C(C)C)nc3c2c(=O)n(C)c(=O)n3C)c1 |  |
| 2.3% | COc1cccc(Cn2c(NCCCN(C)C)nc3c2c(=O)n(C)c(=O)n3C)c1 |  |
| 13.6% | Cn1c(=O)c2c(nc(NCCO)n2CC2CCOCC2)n(C)c1=O |  |
| 11.6% | COc1cccc(Cn2c(NCC(O)CO)nc3c2c(=O)n(C)c(=O)n3C)c1 (stereo not given) |  |
| 19.6% | COc1cccc(Cn2c(NCCN(C)C)nc3c2c(=O)n(C)c(=O)n3C)c1 |  |
| 47% | Cn1c(=O)c2c(nc(NCCO)n2Cc2ccc(Cl)cc2)n(C)c1=O |  |
| 87% | Cn1c(=O)c2c(nc(NCCO)n2Cc2ccc(F)c(C(F)(F)F)c2)n(C)c1=O | selectivity ratio [2]: 7.1; CC50 at 24 h [3]: 55.1 µM |
| 9.4% | COc1cccc(Cn2c(N(C)CCO)nc3c2c(=O)n(C)c(=O)n3C)c1 |  |
| 16.3% | COc1cccc(Cn2c(N3CCOCC3)nc3c2c(=O)n(C)c(=O)n3C)c1 |  |
| 60.1% | COc1cccc(Cn2c(NCCCO)nc3c2c(=O)n(C)c(=O)n3C)c1 |  |
| 40.8% | Cn1c(=O)c2c(nc(NCCO)n2CC(=O)c2ccccc2)n(C)c1=O |  |
| 81% | COc1cccc(Cn2c(N[C@@H](C)CO)nc3c2c(=O)n(C)c(=O)n3C)c1 |  |
| 9% | COc1cccc(Cn2c(NCCCCCCO)nc3c2c(=O)n(C)c(=O)n3C)c1 |  |

| Compound | inhibition [1] | also measured |
| --- | --- | --- |
| Cn1c(=O)c2c(nc(NCCO)n2Cc2cccc(Cl)c2F)n(C)c1=O | 95.8% | selectivity ratio [2]: > 35.1; CC50 at 24 h [3]: > 200 µM; Activity (Mus musculus [4]): inactive; inhibition (Mus musculus [5]): Active; inhibition [6]: Dose-Dependent Effect; Activity (Mus musculus [7]): Active; Activity [8]: Non-Toxic; inhibition (Mus musculus [9]): inactive; fold change (FC) [10]: 1.7; inhibition [11]: Dose-Dependent Effect; LD50 at 168 h [12]: > 1000 mg/kg; Activity [13]: Non-Toxic; inhibition [14]: Dose-Dependent Effect; Activity (Mus musculus [15]): inactive; Activity [16]: Non-Toxic |
